Source: patent US20260207602A1, “EGFR INHIBITORS” (Blueprint Medicines Corporation, priority 2022, published 2026)
pIC50: −log10 of the molar value. Like-named read-outs stand apart in the source and are kept apart here.

Experiments:
EGFR L858R = biological target: T1, EGFR L858R (Homo sapiens, UniProt P00533, L858R); assay: Biochemical EGFR inhibition assay (Caliper mobility shift), EGFR L858R; settings: read-out: Enz EGFR L858R IC50
T1 construct: purchased SignalChem E10-122BG
How it was run: (§1)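 Apparent IC50 from Caliper separation of phospho-peptide from substrate. Conditions: 2.5 µM 5-FAM peptide, 1.0 mM ATP or ATP Km, pH 7.5 HEPES buffer, room temperature, 10–20% conversion, EDTA stop.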

[1] = biological target: intracellular phosphorylation of EGFR (Tyr1068) in PC-9 cells (Homo sapiens, UniProt P00533, DEL746-750); assay: PC-9 pEGFR AlphaLISA assay; format: cell-based; settings: 4 hours incubation, read-out: Phos EGFR PC9 IC50
Sequence of intracellular phosphorylation of EGFR (Tyr1068) in PC-9 cells (P00533 with tags, fused parts or gaps DEL746-750): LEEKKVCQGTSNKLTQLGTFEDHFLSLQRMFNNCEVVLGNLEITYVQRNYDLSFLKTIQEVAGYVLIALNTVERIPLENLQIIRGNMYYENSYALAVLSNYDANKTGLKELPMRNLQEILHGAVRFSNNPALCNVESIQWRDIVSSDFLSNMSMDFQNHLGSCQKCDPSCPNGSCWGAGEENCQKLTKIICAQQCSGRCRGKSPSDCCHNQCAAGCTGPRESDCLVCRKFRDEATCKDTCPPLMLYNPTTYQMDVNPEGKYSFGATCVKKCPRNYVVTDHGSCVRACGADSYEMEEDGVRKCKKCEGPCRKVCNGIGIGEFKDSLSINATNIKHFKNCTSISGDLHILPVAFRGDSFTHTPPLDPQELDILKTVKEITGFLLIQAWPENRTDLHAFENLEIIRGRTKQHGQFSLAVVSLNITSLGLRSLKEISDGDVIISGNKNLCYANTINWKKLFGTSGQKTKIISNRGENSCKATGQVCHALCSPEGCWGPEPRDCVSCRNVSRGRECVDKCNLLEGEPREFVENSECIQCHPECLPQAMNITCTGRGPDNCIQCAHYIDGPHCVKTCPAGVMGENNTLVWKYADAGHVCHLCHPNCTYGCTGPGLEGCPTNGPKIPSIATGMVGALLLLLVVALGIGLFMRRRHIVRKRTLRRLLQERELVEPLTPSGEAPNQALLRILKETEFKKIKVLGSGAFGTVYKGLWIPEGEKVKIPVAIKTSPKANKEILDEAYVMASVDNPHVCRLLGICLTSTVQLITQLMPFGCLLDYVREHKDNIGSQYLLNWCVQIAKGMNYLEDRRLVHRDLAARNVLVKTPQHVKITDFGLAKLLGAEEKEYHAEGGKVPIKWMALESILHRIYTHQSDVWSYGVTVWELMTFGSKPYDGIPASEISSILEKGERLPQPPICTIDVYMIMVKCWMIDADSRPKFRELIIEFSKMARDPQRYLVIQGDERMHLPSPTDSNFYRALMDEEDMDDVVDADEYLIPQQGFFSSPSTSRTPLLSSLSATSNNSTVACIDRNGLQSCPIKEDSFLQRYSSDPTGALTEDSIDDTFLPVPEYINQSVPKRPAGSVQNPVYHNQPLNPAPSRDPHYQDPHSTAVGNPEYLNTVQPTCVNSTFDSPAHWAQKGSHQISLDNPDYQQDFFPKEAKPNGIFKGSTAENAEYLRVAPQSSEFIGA
How it was run: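 PC-9 cells (EGFR del746-750) in phenol-free DMEM/10% FBS, adhered overnight, then exposed to 10-point 4-fold compound dilutions for 4 h at 37 °C. Lysates assayed for pEGFR Tyr1068 by AlphaLISA SureFire Ultra; IC50 from percent pEGFR inhibition vs log concentration.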

EGFR (d746-750) = biological target: T2, EGFR (d746-750) (Homo sapiens, UniProt P00533, DEL746-750); assay: Biochemical EGFR inhibition assay (Caliper mobility shift), EGFR (d746-750); settings: read-out: Enz EGFR Exon 19-del IC50
T2 construct: purchased SignalChem E10-122JG
T2 sequence (P00533 with tags, fused parts or gaps DEL746-750 limits assumed): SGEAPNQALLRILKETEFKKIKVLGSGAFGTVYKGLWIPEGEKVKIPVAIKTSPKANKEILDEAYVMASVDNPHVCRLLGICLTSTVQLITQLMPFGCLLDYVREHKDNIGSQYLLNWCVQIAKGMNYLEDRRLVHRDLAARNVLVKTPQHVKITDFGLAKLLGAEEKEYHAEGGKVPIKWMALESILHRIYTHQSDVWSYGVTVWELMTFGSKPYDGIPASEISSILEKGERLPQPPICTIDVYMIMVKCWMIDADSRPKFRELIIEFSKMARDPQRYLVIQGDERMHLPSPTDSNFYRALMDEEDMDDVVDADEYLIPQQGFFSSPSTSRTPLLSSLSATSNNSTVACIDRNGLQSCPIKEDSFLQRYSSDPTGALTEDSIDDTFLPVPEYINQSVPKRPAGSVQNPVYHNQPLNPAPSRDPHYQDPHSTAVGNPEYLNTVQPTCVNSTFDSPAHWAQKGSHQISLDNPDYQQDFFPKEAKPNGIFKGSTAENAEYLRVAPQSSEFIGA
How it was run: as §1

[2] = biochemical Caliper mobility shift assay, EGFR L858R enzyme
[3] = biochemical Caliper mobility shift assay, EGFR Exon 19-del enzyme

T1 sequence (P00533 25-1210 L858R): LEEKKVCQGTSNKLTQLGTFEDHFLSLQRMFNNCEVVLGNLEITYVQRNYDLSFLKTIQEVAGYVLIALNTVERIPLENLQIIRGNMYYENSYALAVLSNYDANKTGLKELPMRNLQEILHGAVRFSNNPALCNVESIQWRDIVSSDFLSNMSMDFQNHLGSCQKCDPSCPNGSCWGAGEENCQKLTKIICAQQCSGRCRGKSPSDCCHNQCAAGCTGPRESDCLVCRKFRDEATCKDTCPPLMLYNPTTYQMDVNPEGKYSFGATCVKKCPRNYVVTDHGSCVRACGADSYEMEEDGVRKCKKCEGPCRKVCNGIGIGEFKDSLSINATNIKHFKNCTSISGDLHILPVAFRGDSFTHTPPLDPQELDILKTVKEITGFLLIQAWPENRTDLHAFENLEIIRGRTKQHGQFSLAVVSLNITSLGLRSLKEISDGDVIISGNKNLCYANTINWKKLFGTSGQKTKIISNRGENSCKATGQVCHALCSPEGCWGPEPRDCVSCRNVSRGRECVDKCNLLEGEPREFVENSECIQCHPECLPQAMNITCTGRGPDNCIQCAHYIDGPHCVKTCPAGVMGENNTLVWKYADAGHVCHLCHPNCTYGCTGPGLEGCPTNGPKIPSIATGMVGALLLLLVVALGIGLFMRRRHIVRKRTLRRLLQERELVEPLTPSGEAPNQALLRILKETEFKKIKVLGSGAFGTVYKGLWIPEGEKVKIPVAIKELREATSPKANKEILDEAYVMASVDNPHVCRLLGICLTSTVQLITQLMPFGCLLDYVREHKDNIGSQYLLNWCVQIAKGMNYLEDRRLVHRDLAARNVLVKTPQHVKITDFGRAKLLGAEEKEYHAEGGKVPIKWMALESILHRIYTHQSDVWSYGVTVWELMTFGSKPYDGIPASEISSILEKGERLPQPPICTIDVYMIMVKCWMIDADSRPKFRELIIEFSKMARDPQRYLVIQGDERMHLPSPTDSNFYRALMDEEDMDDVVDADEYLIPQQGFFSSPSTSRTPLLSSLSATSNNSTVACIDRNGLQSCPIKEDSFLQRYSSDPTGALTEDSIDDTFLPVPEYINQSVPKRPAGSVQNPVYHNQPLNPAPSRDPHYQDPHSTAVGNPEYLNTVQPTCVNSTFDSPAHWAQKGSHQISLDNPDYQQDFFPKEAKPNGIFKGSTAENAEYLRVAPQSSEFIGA

SMILES	pIC50 (EGFR L858R; [2])	pIC50 [1]	pIC50 (EGFR (d746-750); [3])	pIC50 (EGFR L858R)	pIC50 (EGFR (d746-750))
C[C@@H]1CNCCN1c1cc(O[C@H](C)C2COC2)c2c(Nc3ccc4ncsc4c3F)ncnc2c1 (single isomer, unassigned) [Example 104]	≥ 8.00	7.30 to 8.00	≥ 8.00	–	–
COc1cc2ncnc(Nc3ccc4ncsc4c3)c2cc1-c1cnn(C2CCN(C)CC2)c1 [Example 163, N-(7-methoxy-6-(1-(1-methylpiperidin-4-yl)-1H-pyrazol-4-yl)quinazolin-4-yl)benzo[d]thiazol-6-amine]	≥ 8.00	≥ 8.00	≥ 8.00	–	–
Cc1cn(-c2cc(OC(C)CN(C)C)c3c(Nc4ccc5ncsc5c4)ncnc3c2)c(=O)n1C (stereo not drawn) [Example 203, 1-(4-(benzo[d]thiazol-6-ylamino)-5-((1-(dimethylamino)propan-2-yl)oxy)quinazolin-7-yl)-3,4-dimethyl-1,3-dihydro-2H-imidazol-2-one]	7.30 to 8.00	7.30 to 8.00	≥ 8.00	–	–
Cn1cc(-c2cc(O[C@H]3C[C@@H](O)C3)c3c(Nc4ccc5ncsc5c4)ncnc3c2)cn1 [Example 20, cis-3-((4-(benzo[d]thiazol-6-ylamino)-7-(1-methyl-1H-pyrazol-4-yl)quinazolin-5-yl)oxy)cyclobutan-1-ol]	≥ 8.00	≥ 8.00	≥ 8.00	–	–
Cn1cc(-c2cc(OCC3COC3)c3c(Nc4ccc5ncsc5c4)ncnc3c2)cn1 [Example 28, N-(7-(1-methyl-1H-pyrazol-4-yl)-5-(oxetan-3-ylmethoxy)quinazolin-4-yl)benzo[d]thiazol-6-amine]	≥ 8.00	7.30 to 8.00	≥ 8.00	–	–
Cn1cc(-c2cc(O[C@H]3CCCN(C4COC4)C3)c3c(Nc4ccc5ncsc5c4)ncnc3c2)cn1 [Example 317, (S)-N-(7-(1-methyl-1H-pyrazol-4-yl)-5-((1-(oxetan-3-yl)piperidin-3-yl)oxy)quinazolin-4-yl)benzo[d]thiazol-6-amine]	≥ 8.00	≥ 8.00	≥ 8.00	–	–
CCN1CCN(C(=O)Nc2cc3c(Nc4ccc5ncsc5c4)ncnc3cc2-c2ccn(C)n2)[C@H](C)C1 [Example 397, (R)-N-(4-(benzo[d]thiazol-6-ylamino)-7-(1-methyl-1H-pyrazol-3-yl)quinazolin-6-yl)-4-ethyl-2-methylpiperazine-1-carboxamide]	≥ 8.00	≥ 8.00	≥ 8.00	–	–
C[C@@H](Oc1cc(N2CCN(C)[C@@H](C)C2)cc2ncnc(Nc3ccc4ncsc4c3F)c12)C1COC1 (single isomer, unassigned) [Example 99]	7.30 to 8.00	7.30 to 8.00	≥ 8.00	–	–
Cn1cc(-c2cc(O[C@@H]3CC[C@H]3O)c3c(Nc4ccc5ncsc5c4)ncnc3c2)cn1 [Example 186, (1R,2R)-2-((4-(benzo[d]thiazol-6-ylamino)-7-(1-methyl-1H-pyrazol-4-yl)quinazolin-5-yl)oxy)cyclobutan-1-ol]	≥ 8.00	≥ 8.00	≥ 8.00	–	–
CN1CCC[C@H](Oc2cc(C#CCN3CCOCC3)cc3ncnc(Nc4ccc5ncsc5c4)c23)C1 [Example A25, N-(1,3-benzothiazol-6-yl)-5-{[(3S)-1-methylpiperidin-3-yl]oxy}-7-[3-(morpholin-4-yl)prop-1-yn-1-yl]quinazolin-4-amine]	–	7.30 to 8.00	–	> 8.00	> 8.00
C[C@H](Oc1cc(-c2cnn(C)c2)cc2ncnc(Nc3ccc4ncsc4c3F)c12)C(=O)N1CCOCC1 (single isomer, unassigned) [Example 282]	≥ 8.00	≥ 8.00	≥ 8.00	–	–
Cn1cc(-c2cc(OC[C@]34COC[C@H]3C4)c3c(Nc4ccc5ncsc5c4)ncnc3c2)cn1 (single isomer, unassigned) [Example 148]	≥ 8.00	7.30 to 8.00	≥ 8.00	–	–
Cn1cc(-c2cc(O[C@H]3C[C@H](O)C3)c3c(Nc4ccc5ncsc5c4)ncnc3c2)cn1 [Example 19, trans-3-((4-(benzo[d]thiazol-6-ylamino)-7-(1-methyl-1H-pyrazol-4-yl)quinazolin-5-yl)oxy)cyclobutan-1-ol]	≥ 8.00	≥ 8.00	≥ 8.00	–	–
